This note sets out measurements from patent US6380218B1, “Nicotinamide derivatives” (Pfizer Inc, priority 1997, dated 2002).

Counter-ions that a name gives are not always drawn.

Take `Cc1noc2c(Oc3ncccc3C(=O)NCC3CCC(C(C)(C)O)CC3)cccc12` (stereo not drawn) [Example 317, N-(4-(1-Hydroxy-1-methyl-ethyl)-cyclohexylmethyl)-2-(3-methyl-benzo(d)-isoxazol-7-yloxy)-nicotinamide]: the melting point – broadly, the temperature, or range, at which the solid turns liquid – lay within 170 to 172 °C. The value for `CC(C)(C)C(=O)Oc1ccc(CNC(=O)c2cccnc2Oc2ccc(F)cc2)cc1` [Example 130, 2,2-Dimethyl-propionic acid 4-({[2-(4-fluoro-phenoxy)-pyridine-3-carbonyl]-amino}-methyl)-phenyl ester] was 91 to 93 °C. Take `COc1ccccc1NC(=O)Nc1cccc(Oc2ncccc2C(=O)NCc2ccccc2Cl)c1` [Example 138, N-(2-Chloro-benzyl)-2-(3-[3-(2-methoxy-phenyl)-ureido]-phenoxy}-nicotinamide]: the melting point was in the range of 180 to 182 °C. The value for `O=C(NCc1ccc(Cl)o1)c1cccnc1Oc1cccnc1` [Example 23, N-(5-Chloro-furan-2-ylmethyl)-2-(pyridin-3-yloxy)-nicotinamide] was 80 to 82 °C. The value for `O=C(NCc1ccc(F)s1)c1cccnc1Oc1cccnc1` [Example 32, N-(5-Fluoro-thiophen-2-ylmethyl)-2-(pyridin-3-yloxy)-nicotinamide] was 99 to 101 °C; that for `CC(=O)c1cccc(Oc2ncccc2C(=O)NCc2ccc([C@H](C)O)cc2)c1` [Example 306, (S)-(−)-2-(3-Acetyl-phenoxy)-N-(4-(1-hydroxy-ethyl)-benzyl)-nicotinamide] was 102 to 104 °C.

In the case of `O=C(NCc1ccc2c(c1)OCCC2O)c1cccnc1Oc1cccnc1` (stereo not drawn) [Example 41, N-(4-Hydroxy-chroman-7-ylmethyl)-2-(pyridin-3-yloxy)-nicotinamide], the melting point lay within 134 to 136 °C. `CC(C)(O)c1cc(Cl)c(CNC(=O)c2cccnc2Oc2cccnc2)s1` [Example 44, N-[3-Chloro-5-(1-hydroxy-1-methyl-ethyl)-thiophen-2-ylmethyl]-2-(pyridin-3-yloxy)-nicotinamide] had a melting point of 74 to 76 °C. The value for `O=C(NCc1ccc(Cl)s1)c1cccnc1Oc1ccc(F)cc1` [Example 61, N-(5-Chloro-thiophen-2-ylmethyl)-2-(4-fluoro-phenoxy)-nicotinamide] was 91 to 93 °C; that for `O=C(NCc1cccc2[nH]ccc12)c1cccnc1Oc1cccnc1` [Example 180, N-(1H-Indol-4-ylmethyl)-2-(pyridin-3yloxy)-nicotinamide] was 134 to 135 °C; that for `CC(C)(O)c1ccc(CNC(=O)c2cccnc2Oc2cncc(Cl)c2)cc1` [Example 59, 2-(5-Chloro-pyridin-3-yloxy)-N-[4-(1-hydroxy-1-methyl-ethyl)-benzyl]-nicotinamide] was 78 to 80 °C. The value for `O=C(NCc1ccc(OCC(F)(F)F)cc1)c1cccnc1Oc1cccnc1` [Example 25, 2-(Pyridin-3-yloxy)-N-[4-(2,2,2-trifluoro-ethoxy)-benzyl]-nicotinamide] was 98 to 100 °C; that for `CC(=O)c1cccc(Oc2ncccc2C(=O)NCc2ccccc2Cl)c1` [Example 222, 2-(3-Acetyl-phenoxy)-N-(2-chloro-benzyl)-nicotinamide] was 140 to 142 °C; that for `O=C(NCc1ccccn1)c1cccnc1Oc1cccnc1` [Example 181, N-Pyridin-2-ylmethyl-2-(pyridin-3-yloxy)-nicotinamide] was 118 to 119 °C.

With `N#Cc1cccc(Oc2ncccc2C(=O)NCc2ccc(Cl)s2)c1` [Example 111, N-(5-Chloro-thiophen-2-ylmethyl)-2-(3-cyano-phenoxy)-nicotinamide], the melting point was 145 to 147 °C. The compound `O=C(NCc1ccccc1Cl)c1cccnc1OCc1cccnc1` [Example 246, N-(2-Chloro-benzyl)-2-(pyridin-3-ylmethoxy)-nicotinamide] returned a melting point of 91 to 93 °C. For the compound `O=C(Nc1ccc2[nH]c(=O)oc2c1)c1cccnc1Oc1ccc(F)cc1` [Example 74, 2-(4-Fluoro-phenoxy)-N-(2-oxo-2,3-dihydro-benzooxazol-6-yl)-nicotinamide], the melting point was 289 to 291 °C. Turning to `CC(=O)Nc1ccc(CNC(=O)c2cccnc2Oc2ccc(F)cc2)cc1` [Example 124, N-(4-Acetylamino-benzyl)-2-(4-fluoro-phenoxy)-nicotinamide], the melting point lay within 128 to 130 °C. To `O=C(NCc1cc2ccccc2s1)c1cccnc1Oc1ccc(F)cc1` [Example 65, N-Benzo[b]thiophen-2-ylmethyl-2-(4-fluoro-phenoxy)-nicotinamide] belongs 109 to 111 °C; to `Cc1ccc(C(C)NC(=O)c2cccnc2Oc2cncc(Cl)c2)s1` (stereo not drawn) [Example 50, 2-(5-Chloro-pyridin-3-yloxy)-N-[1-(5-methyl-thiophen-2-yl)-ethyl]-nicotinamide], 75 to 77 °C.

The compound `O=C(c1cc2ccccc2[nH]1)c1cccnc1Oc1ccc(F)cc1` [Example 269, [2-(4-Fluoro-phenoxy)-pyridin-3-yl]-(1H-indol-2-yl)-methanone] had a melting point of 169 to 170 °C. As to `CN(C)c1cccc(Oc2ncccc2C(=O)NCc2ccccc2Cl)c1` (as salt: HCl) [Example 118, N-(2-Chloro-benzyl)-2-(3-dimethylamino-phenoxy)-nicotinamide], the melting point was 85 to 87 °C. The value for `CC(C)(O)c1ccc(CNC(=O)c2cccnc2Oc2ccc(F)cc2)cc1` was 106 to 108 °C. To `CC(C)(O)c1ccc(CNC(=O)c2cccnc2Oc2ccc(F)cc2)c(F)c1` [Example 328, N-[2-Fluoro-4-(1-hydroxy-1-methyl-ethyl)-benzyl]-2-(4-fluoro-phenoxy)-nicotinamide] belongs 93 to 94 °C. To `CC(=O)c1cccc(Oc2ncccc2C(=O)NCc2ccc(C(C)O)cc2)c1` (stereo not drawn) [Example 223, 2-(3-Acetyl-phenoxy)-N-[4-(1-hydroxy-ethyl)-benzyl]-nicotinamide] belongs 105 to 107 °C.

On to `O=C(NCc1cc(Cl)cs1)c1cccnc1Oc1cncc(Cl)c1` [Example 55, 2-(5-Chloro-pyridin-3-yloxy)-N-(4-chloro-thiophen-2-ylmethyl)-nicotinamide], for which the melting point was 94 to 96 °C. The value for `O=C(NCc1ccccc1Cl)c1cccnc1Oc1cccc(C(F)(F)F)c1` [Example 184, N-(2-Chloro-benzyl)-2-(3-trifluoromethyl-phenoxy)-nicotinamide] was 88 to 90 °C; that for `O=C(NCc1cc2ccccc2s1)c1cccnc1Oc1cccnc1` [Example 22, N-Benzo[b]thiophen-2-ylmethyl-2-(pyridin-3-yloxy)-nicotinamide] was 93 to 95 °C. With `O=C1CCC(CNC(=O)c2cccnc2Oc2ccc(F)cc2)CC1` [Example 286, 2-(4-Fluoro-phenoxy)-N-(4-oxo-cyclohexylmethyl)-nicotinamide], the melting point was in the range of 157 to 159 °C. `O=C(Nc1cccc(Oc2ncccc2C(=O)NCc2ccccc2Cl)c1)Nc1cccc2ccccc12` [Example 139, N-(2-Chloro-benzyl)-2-[3-(3-naphthalen-1-yl-ureido)-phenoxy]-nicotinamide]: the melting point was 121 to 123 °C. The value for `N#Cc1cccc(Oc2ncccc2C(=O)NCc2ccccc2Cl)c1` [Example 110, N-(2-Chloro-benzyl)-2-(3-cyano-phenoxy)-nicotinamide] was 135 to 137 °C; that for `Cc1cc(CNC(=O)c2cccnc2Oc2cccc([N+](=O)[O-])c2)cc(C)c1O` [Example 108, N-(4-Hydroxy-3,5-dimethyl-benzyl)-2-(3-nitro-phenoxy)-nicotinamide] was 128 to 130 °C; that for `CCC(O)(CC)c1ccc(CNC(=O)c2cccnc2Oc2ccc(F)cc2)s1` [Example 80, N-[5-(1-Ethyl-1-hydroxy-propyl)-thiophen-2-ylmethyl]-2-(4-fluoro-phenoxy)-nicotinamide] was 95 to 97 °C. The value for `CC(=O)c1cc(Oc2ncccc2C(=O)NC[C@H]2CC[C@H](C(C)(C)O)CC2)ccc1Cl` [Example 309, 2-(3-Acetyl-4-chloro-phenoxy)-N-(trans-4-(1-hydroxy-1-methyl-ethyl)-cyclohexylmethyl)-nicotinamide] was 106 to 108 °C; that for `O=C1Cc2cc(CNC(=O)c3cccnc3Oc3cccc([N+](=O)[O-])c3)ccc2N1` [Example 106, 2-(3-Nitro-phenoxy)-N-(2-oxo-2,3-dihydro-1H-indol-5-ylmethyl)-nicotinamide] was 190 to 192 °C. The value for `CC(=O)c1ccc(CNC(=O)c2cccnc2Oc2cccnc2)s1` [Example 159, N-(5-Acetyl-thiophen-2-ylmethyl)-2-(pyridin-3-yloxy)-nicotinamide] was 201 to 203 °C. Compound `CC1(c2ccc(CNC(=O)c3cccnc3Oc3ccc(F)cc3)cc2)OCCO1` [Example 94, 2-(4-Fluoro-phenoxy)-N-[4-(2-methyl-[1,3]dioxolan-2-yl)-benzyl]-nicotinamide] registered a melting point of 78 to 80 °C. The value for `CCCCNC(=O)c1cccnc1Oc1cccnc1` [Example 174, N-Butyl-2-(pyridin-3-yloxy)-nicotinamide] was 55 to 56 °C. The value for `O=C(NCc1ccc(Cl)s1)c1cccnc1Oc1cncc(Cl)c1` [Example 51, 2-(5-Chloro-pyridin-3-yloxy)-N-(5-chloro-thiophen-2-ylmethyl)-nicotinamide] was 125 to 127 °C. In turn, `C[C@H](NC(=O)c1cccnc1Oc1cccnc1)c1cccs1` (as salt: HCl) [Example 46, (S)(+)-2-(Pyridin-3-yloxy)-N-(1-thiophen-2-yl-ethyl)-nicotinamide] yielded a melting point of 196 to 198 °C.

`O=C1COC(CNC(=O)c2cccnc2Oc2ccc(F)cc2)CN1` (stereo not drawn) [Example 216, 2-(4-Fluoro-phenoxy)-N-(5-oxo-morpholin-2-ylmethyl)-nicotinamide] gave a melting point of 157 to 159 °C. The value for `NS(=O)(=O)c1ccc(CNC(=O)c2cccnc2Oc2ccc(F)cc2)cc1` [Example 193, 2-(4-Fluoro-phenoxy)-N-(4-sulfamoyl-benzyl)-nicotinamide] was 222 to 223 °C.
